Test results from patent US20230167073A1 (Teijin Pharma Limited, priority 2020, published 2023).

The compounds below were run against T1, Human TRPC6 (Homo sapiens, UniProt Q9Y210) (assay: Evaluation of TRPC6 channel inhibitory activity (2), HEK293 cells with stably introduced human TRPC6, OAG stimulation, FLIPR tetra (Compound Nos. 1293 to 1405)). Details: HEK293 cells with stably introduced human TRPC6, OAG 50 μM/0.5% DMSO, read-out: Inhibitory activity (pIC50 class) (converted).
T1 construct: expressed in transfected cells
T1 sequence (Q9Y210 1-931): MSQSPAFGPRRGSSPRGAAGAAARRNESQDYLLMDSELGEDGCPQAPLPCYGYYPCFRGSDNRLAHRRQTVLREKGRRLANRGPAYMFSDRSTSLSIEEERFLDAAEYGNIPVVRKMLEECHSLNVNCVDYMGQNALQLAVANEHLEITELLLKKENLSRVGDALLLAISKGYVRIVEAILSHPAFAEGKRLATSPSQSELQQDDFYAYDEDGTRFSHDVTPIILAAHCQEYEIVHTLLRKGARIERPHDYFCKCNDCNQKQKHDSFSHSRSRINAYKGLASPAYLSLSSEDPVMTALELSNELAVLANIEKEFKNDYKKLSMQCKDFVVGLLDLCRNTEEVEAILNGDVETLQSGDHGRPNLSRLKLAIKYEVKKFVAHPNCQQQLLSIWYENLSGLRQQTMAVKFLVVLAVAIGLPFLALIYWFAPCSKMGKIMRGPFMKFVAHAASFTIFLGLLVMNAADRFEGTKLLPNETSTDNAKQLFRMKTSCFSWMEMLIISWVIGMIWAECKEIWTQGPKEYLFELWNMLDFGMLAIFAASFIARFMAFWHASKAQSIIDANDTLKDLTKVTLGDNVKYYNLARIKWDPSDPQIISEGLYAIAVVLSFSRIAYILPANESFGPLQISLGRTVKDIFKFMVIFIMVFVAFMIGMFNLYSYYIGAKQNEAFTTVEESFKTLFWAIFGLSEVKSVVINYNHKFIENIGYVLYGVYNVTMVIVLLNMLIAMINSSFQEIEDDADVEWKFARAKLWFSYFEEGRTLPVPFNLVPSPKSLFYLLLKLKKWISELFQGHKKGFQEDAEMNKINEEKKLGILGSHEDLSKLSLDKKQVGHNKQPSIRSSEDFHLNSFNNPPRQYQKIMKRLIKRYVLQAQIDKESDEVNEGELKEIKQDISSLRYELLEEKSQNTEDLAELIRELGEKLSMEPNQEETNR
Format: cell-based
Method: Evaluation of TRPC6 Channel Inhibitory Activity (2) (Compound Nos. 1293 to 1405)
The activity of the TRPC6 inhibitor was measured by stimulating HEK293 cells, in which human TRPC6 was stably introduced, with OAG (1-Oleoyl-2-acetyl-sn-glycerol, Miliipore Sigma, 06754), using the FLIPR tetra system. The cells were proliferated in a humid environment at 37° C. 5% CO2 using a growth medium (DMEM (Dulbecco's Modified Eagle's Medium) high glucose containing 10% fetal bovine serum, 1×PSGlu (penicillin-streptomycin glutamine), 1×NEAA (Non-essential amino acid), sodium pyruvate and 200 μg/mL hyglomycin. For cell subculture, the cells were proliferated to 70-90% confluence, and gently washed twice with PBS (phosphate-buffered saline) free of calcium and magnesium after removing the medium. Then, the cells were incubated at 37° C. for 5 minutes after adding trypsin (3 mL), peeled off by tapping the flask at the base of the hand, 7 mL of growth medium was added to inactivate trypsin, and then the cells were resuspended. Usually, the cells were separated every 2-3 days to become a cell density of ⅕. The day before evaluation, the cells were seeded in a poly-D-lysine (PDL) coated 384-well plate using a multi-channel pipette or multidrop at a cell density of 1.0-1.5×10^4 cells/25 μL/well. After culturing overnight in a PDL-coated 384 Blackwell plate, a fluorescent dye buffer was added first to the cells and the cells were cultured at room temperature for 90-120 minutes. For preparing 10 mL of fluorescent dye buffer, 9 mL of assay buffer, 1 mL of 10×PBX signal enhancer, and 10 μL of calcium indicator were mixed. Cells treated with the compounds of each level 25 minutes before the stimulation with OAG of TRPC6 agonist were incubated. OAG solution was prepared by adding OAG to assay buffer (Ca ringer solution base: 10 mM HEPES (4-(2-hydroxyethyl)-1-piperazine-ethanesulfonic acid), 4 mM MgCl2, 120 mM NaCl, 5 mM KCl, pH=7.2 (25° C.)+0.1% BSA+2 mM CaCl2)) to give an OAG concentration of 0.2 mM/2% DMSO. The final concentration of OAG added to the cells is 50 μM/0.5% DMSO. A volume of 12.5 μL of OAG solution was added, and activation of TRPC6 channel was measured using the FLIPR tetra system assaying the change in intracellular calcium level as an index. The 180 seconds imaging frame was defined as the background signal, and the subtraction of the background signal from the raw data was used as the fluorescence peak signal. Each fluorescence peak signal is standardized using an OAG-induced signal and buffer-induced signal as 100% and 0%, respectively. The inhibition rate obtained by plotting the peak signal after the addition of the compounds of each level was analyzed by a four-parameter logistic regression to quantify the inhibition rate in the logarithm of the inverse of the effective concentration which gives a 50% inhibition rate (pIC50). The intensity was expressed by the above-mentioned symbols (+, ++, +++).

Row | Compound | IC50 [nM]
1 | Cc1cc(Oc2cc(Cl)cnc2-c2ccc([C@@H](F)CN)cn2)cc(N2CCOCC2)n1 [compound 1397, (2R)-2-[6-[5-chloro-3-(2-methyl-6-morpholin-4-ylpyridin-4 yl)oxypyridin-2-yl]pyridin-3-yl]-2-fluoroethanamine] | 10 to 1000
2 | Cn1nc(-c2ccccn2)cc1Oc1cc(C#N)ccc1-c1ncc(C(F)(F)CN)cn1 [compound 1318, 4-[5-(2-amino-1,1-difluoroethyl)pyrimidin-2-yl]-3-(2-methyl-5-pyridin-2-ylpyrazol-3-yl)oxybenzonitrile] | 10 to 1000
3 | COc1nc(-c2ccc(C#N)cc2Oc2cc(-c3ccccn3)nn2C)ccc1CN [compound 1310, 4-[5-(aminomethyl)-6-methoxypyridin-2-yl]-3-(2-methyl-5-pyridin-2-ylpyrazol-3-yl)oxybenzonitrile] | 10 to 1000
4 | Cn1nc([C@@H]2CCOC2)cc1Oc1cc(Cl)ccc1-c1ncc(CN)cn1 [compound 1356, [2-[4-chloro-2-[2-methyl-5-[(3S)-oxolan-3-yl]pyrazol-3-yl]oxyphenyl]pyrimidin-5-yl]methanamine] | 10 to 1000
5 | Cn1nc(C2CCOCC2)cc1Oc1cc(Cl)ccc1-c1ccc([C@H](F)CN)cn1 [compound 1386, (2S)-2-[6-[4-chloro-2-[2-methyl-5-(oxan-4-yl)pyrazol-3-yl]oxyphenyl]pyridin-3-yl]-2-fluoroethanamine] | 10 to 1000
6 | CNc1ccc(-c2ccc(C#N)cc2Oc2cc(C)nc(N3CCOCC3)c2)nc1 [compound 1307, 4-[5-(methylamino)pyridin-2-yl]-3-(2-methyl-6-morpholin-4-ylpyridin-4-yl)oxybenzonitrile] | > 1000
7 | Cc1cc(Oc2cc(Cl)ccc2-c2ccc([C@@H](F)CN)cn2)cc(N2CCOCC2)n1 [compound 1394, (2R)-2-[6-[4-chloro-2-(2-methyl-6-morpholin-4-ylpyridin-4-yl)oxyphenyl]pyridin-3-yl]-2-fluoroethanamine] | 10 to 1000
8 | Cc1nc(Oc2cc(Cl)ccc2-c2ncc([C@@H](O)CN)cn2)cc(N2CCOCC2)n1 [compound 1376, (1R)-2-amino-1-[2-[4-chloro-2-(2-methyl-6-morpholin-4-ylpyrimidin-4-yl)oxyphenyl]pyrimidin-5-yl]ethanol] | 10 to 1000
9 | Cn1cc(-c2cc(Oc3cc(C#N)ccc3-c3ccc(CN)cn3)n(C)n2)cn1 [compound 1309, 4-[5-(aminomethyl)pyridin-2-yl]-3-[2-methyl-5-(1-methylpyrazol-4-yl)pyrazol-3-yl]oxybenzonitrile] | 10 to 1000
10 | Cc1cc(Oc2cc(Cl)ccc2-c2ncc([C@H](O)CN)cn2)cc(N2CCOCC2)n1 [compound 1349, (1S)-2-amino-1-[2-[4-chloro-2-(2-methyl-6-morpholin-4-ylpyridin-4-yl)oxyphenyl]pyrimidin-5-yl]ethanol] | 10 to 1000
11 | Cn1nc(C2CCOCC2)cc1Oc1cc(C#N)ccc1-c1ccc([C@@H](F)CN)cn1 [compound 1368, 4-[5-[(1R)-2-amino-1-fluoroethyl]pyridin-2-yl]-3-[2-methyl-5-(oxan-4-yl)pyrazol-3-yl]oxybenzonitrile] | < 10
12 | Cn1nc(-c2ccccn2)cc1Oc1cc(Cl)cnc1-c1ccc([C@H](F)CN)cn1 [compound 1354, (2S)-2-[6-[5-chloro-3-(2-methyl-5-pyridin-2-ylpyrazol-3-yl)oxypyridin-2-yl]pyridin-3-yl]-2-fluoroethanamine] | < 10
13 | Cn1nc(-c2ccccn2)cc1Oc1cc(Cl)ccc1-c1ccc(CN)cn1 [compound 1340, [6-[4-chloro-2-(2-methyl-5-pyridin-2-ylpyrazol-3-yl)oxyphenyl]pyridin-3-yl]methanamine] | < 10
14 | Cn1nc(C2CC2)cc1Oc1cc(Cl)ccc1-c1ncc([C@H](F)CN)cn1 [compound 1347, (2S)-2-[2-[4-chloro-2-(5-cyclopropyl-2-methylpyrazol-3-yl)oxyphenyl]pyrimidin-5-yl]-2-fluoroethanamine] | 10 to 1000
15 | Cn1nc(-c2ccccn2)cc1Oc1cc(C#N)ccc1-c1ncc([C@@H](F)CN)cn1 [compound 1295, 4-[5-[(1R)-2-amino-1-fluoroethyl]pyrimidin-2-yl]-3-(2-methyl-5-pyridin-2-ylpyrazol-3-yl)oxybenzonitrile] | < 10
16 | Cc1cc(Oc2cc(C#N)ccc2-c2ncc3c(n2)CNC3)cc(N2CCOCC2)n1 [compound 1392, 4-(6,7-dihydro-5H-pyrrolo[3,4-d]pyrimidin-2-yl)-3-(2-methyl-6-morpholin-4-ylpyridin-4-yl)oxybenzonitrile] | > 1000
17 | Cn1nc([C@H]2CCCO2)cc1Oc1cc(C#N)ccc1-c1ccc(CCN)cn1 [compound 1317] | < 10

These compounds were tested against T1, Human TRPC6 (assay: Evaluation of TRPC6 channel inhibitory activity (1), FLIPR Calcium 5 Assay Kit, OAG stimulation (Compound Nos. 1-1293)). Details: Human TRPC6 stably-expressing cells, OAG 30 μM, FLIPR Calcium 5 Assay Kit; read-out: Inhibitory activity (pIC50 class) (converted).
Format: cell-based
Procedure, shortened: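 Readout is pIC50 from four-parameter logistic fitting of inhibition of the OAG-evoked (30 μM final) fluorescence calcium signal. Human TRPC6 stable cells are dye-loaded with probenecid, and compound is applied 20 min ahead of agonist.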

Row | Compound | IC50 [nM]
18 | Cc1nc(OCC2CC2(F)F)cc(Oc2cc(C#N)ccc2-c2ncc(CN)cn2)n1 (centres unmarked) [compound 847, 4-[5-(aminomethyl)pyrimidin-2-yl]-3-[6-[(2,2-difluorocyclopropyl)methoxy]-2-methylpyrimidin-4-yl]oxybenzonitrile] | > 1000
19 | N#Cc1ccc(-c2ncc(CN)cn2)c(Oc2ccc(N3C4CCC3CC4)nc2)c1 [compound 753, 4-[5-(aminomethyl)pyrimidin-2-yl]-3-[6-(7-azabicyclo[2.2.1]heptan-7-yl)pyridin-3-yl]oxybenzonitrile] | > 1000
20 | CN(C)c1cc(C(=O)c2cc(C#N)ccc2-c2ncc(CN)cn2)n(C)n1 [compound 1051, 4-[5-(aminomethyl)pyrimidin-2-yl]-3-[5-(dimethylamino)-2-methylpyrazole-3-carbonyl]benzonitrile] | < 10
21 | Cc1cc(Oc2cc(C#N)ccc2-c2ccc(C3(F)CNC3)cn2)cc(N2CCOCC2)n1 [compound 538, 4-[5-(3-fluoroazetidin-3-yl)pyridin-2-yl]-3-(2-methyl-6-morpholin-4-ylpyridin-4-yl)oxybenzonitrile] | 10 to 1000
22 | Cc1nc(Oc2cc(C#N)ccc2-c2ncc([C@H](O)CN)cn2)cc(N2CCCCC2)n1 [compound 510, 4-[5-[(1S)-2-amino-1-hydroxyethyl]pyrimidin-2-yl]-3-(2-methyl-6-piperidin-1-ylpyrimidin-4-yl)oxybenzonitrile] | < 10
23 | CN(CCF)c1cc(Oc2cc(C#N)ccc2-c2ncc(CCN)cn2)n(C)n1 [compound 822, 4-[5-(2-aminoethyl)pyrimidin-2-yl]-3-[5-[2-fluoroethyl(methyl)amino]-2-methylpyrazol-3-yl]oxybenzonitrile] | < 10
